Assays:
Type in all cases: cell-based
HL-60(TB) = experiment: NCI 60 cell line screen (SRB), Leukemia; details: HL-60(TB) (Leukemia)
MOLT-4 = experiment: NCI 60 cell line screen (SRB), Leukemia; details: for drug concentration necessary to achieve primary growth inhibition (percentage growth +50): MOLT-4, read from dose response curves FIGS. 10a-10e
RPMI-8226 = experiment: NCI 60 cell line screen (SRB), Leukemia; details: RPMI-8226 (Leukemia)
SR = experiment: NCI 60 cell line screen (SRB), Leukemia
NCI-H522 = experiment: NCI 60 cell line screen (SRB), Non-Small Cell Lung Cancer
COLO 205 = experiment: NCI 60 cell line screen (SRB), Colon Cancer; details: COLO 205 (Colon Cancer)
HCT-116 = experiment: NCI 60 cell line screen (SRB), Colon Cancer; details: HCT-116 (Colon Cancer)
KM12 = experiment: NCI 60 cell line screen (SRB), Colon Cancer
U251 = experiment: NCI 60 cell line screen (SRB), CNS Cancer
LOX IMVI = experiment: NCI 60 cell line screen (SRB), Melanoma
UACC-257 = experiment: NCI 60 cell line screen (SRB), Melanoma; details: UACC-257 (Melanoma)
OVCAR-5 = experiment: NCI 60 cell line screen (SRB), Ovarian Cancer; details: OVCAR-5 (Ovarian Cancer)
ACHN = experiment: NCI 60 cell line screen (SRB), Renal Cancer
RXF 393 = experiment: NCI 60 cell line screen (SRB), Renal Cancer; details: RXF 393 (Renal Cancer)
SN12C = experiment: NCI 60 cell line screen (SRB), Renal Cancer
TK-10 = experiment: NCI 60 cell line screen (SRB), Renal Cancer; details: TK-10 (Renal Cancer)
UO-31 = experiment: NCI 60 cell line screen (SRB), Renal Cancer; details: UO-31 (Renal Cancer)
PC-3 = experiment: NCI 60 cell line screen (SRB), Prostate Cancer; details: PC-3 (Prostate Cancer)
MDA-MB231/ATCC = experiment: NCI 60 cell line screen (SRB), Breast Cancer
MDA-MB-435 = experiment: NCI 60 cell line screen (SRB), Breast Cancer; details: MDA-MB-435 (Breast Cancer)
BT-549 = experiment: NCI 60 cell line screen (SRB), Breast Cancer; details: BT-549 (Breast Cancer)
T-47D = experiment: NCI 60 cell line screen (SRB), Breast Cancer; details: T-47D (Breast Cancer)
EKVX = experiment: NCI 60 cell line screen (SRB), Non-Small Cell Lung Cancer
NCI-H23 = experiment: as above
SNB-75 = experiment: NCI 60 cell line screen (SRB), CNS Cancer; details: SNB-75 (CNS Cancer)

For CC(=O)O[C@H]1C(=O)[C@@]2(C)[C@H]([C@H](OC(=O)c3ccccc3)[C@]3(O)C[C@H](OC(=O)[C@H](O)[C@@H](NC(=O)c4ccccc4)c4ccccc4)C(C)=C1C3(C)C)[C@]1(OC(C)=O)CO[C@@H]1C[C@@H]2O [Paclitaxel, paclitaxel, reference compound], the Log10GI50 (HL-60(TB)) was −11.57 M, the Log10LC50 (HL-60(TB)) was over −4.53 M and the Log10TGI (HL-60(TB)) was −4.53 M. The Log10GI50 (MOLT-4; MOLT-4 (Leukemia)) was −11.07 M, the Log10LC50 (MOLT-4; MOLT-4 (Leukemia)) was over −4.00 M and the Log10TGI (MOLT-4; MOLT-4 (Leukemia)) was over −4.00 M. For the same molecule, the “drug concentration necessary to achieve primary growth inhibition (percentage growth +50)” value (MOLT-4) was “less than 10^−8 molar”, the Log10GI50 (RPMI-8226) was under −13.00 M and the Log10LC50 (RPMI-8226) was over −4.00 M. For the same molecule, the Log10TGI (RPMI-8226) was over −4.00 M, the Log10LC50 (SR) was over −4.00 M and the Log10TGI (SR) was over −4.00 M. For the same molecule, the Log10GI50 (NCI-H522) was over −13.00 M, the Log10LC50 (NCI-H522) was over −4.00 M and the Log10TGI (NCI-H522) was −11.20 M. The Log10GI50 (COLO 205) was −11.07 M, the Log10LC50 (COLO 205) was over −4.41 M and the Log10GI50 (HCT-116) was under −13.00 M. For the same molecule, the Log10LC50 (HCT-116) was over −4.00 M, the Log10TGI (HCT-116) was −4.82 M and the Log10GI50 (KM12) was −11.43 M. It also gave a Log10LC50 (KM12) of over −4.00 M, a Log10TGI (KM12) of −4.36 M and a Log10GI50 (U251) of −11.29 M. For the same molecule, the Log10LC50 (U251) was −4.15 M, the Log10TGI (U251) was −4.32 M and the Log10GI50 (LOX IMVI) was −11.80 M. The Log10LC50 (LOX IMVI) was over −4.15 M, the Log10TGI (LOX IMVI) was −4.65 M and the Log10GI50 (UACC-257) was −10.30 M. The Log10LC50 (UACC-257) was −4.03 M, the Log10TGI (UACC-257) was −4.52 M and the Log10GI50 (OVCAR-5) was −9.38 M. The Log10LC50 (OVCAR-5) was over −4.00 M, the Log10TGI (OVCAR-5) was −4.92 M and the Log10LC50 (ACHN) was −4.45 M. The Log10TGI (ACHN) was −4.90 M, the Log10GI50 (RXF 393) was −8.32 M and the Log10LC50 (RXF 393) was over −4.00 M. It also gave a Log10TGI (RXF 393) of over −4.00 M, a Log10GI50 (SN12C) of −9.53 M and a Log10LC50 (SN12C) of over −4.00 M. The Log10GI50 (TK-10) was −7.89 M, the Log10GI50 (UO-31) was −6.09 M and the Log10GI50 (PC-3) was −10.85 M. For the same molecule, the Log10LC50 (PC-3) was over −4.00 M, the Log10TGI (PC-3) was over −4.00 M and the Log10GI50 (MDA-MB231/ATCC) was −8.54 M. The Log10TGI (MDA-MB231/ATCC) was −4.84 M, the Log10GI50 (MDA-MB-435) was under −13.00 M and the Log10GI50 (BT-549) was −9.31 M. For the same molecule, the Log10LC50 (BT-549) was over −4.00 M, the Log10TGI (BT-549) was −6.32 M and the Log10GI50 (T-47D) was −9.81 M. It also gave a Log10LC50 (T-47D) of over −4.00 M.
Work on C[C@@H]1CC[C@H]2[C@@H](C)C(=O)O[C@@H]3O[C@@]4(C)CC[C@@H]1[C@]32OO4 [QHS, 3,6,9-trimethyl-9,10b-epidioxyperhydropyrano[4,3,2-jk]benzoxepin-2-one, reference compound] yielded a Log10GI50 (HL-60(TB)) of −4.26 M, a Log10LC50 (HL-60(TB)) of over −4.00 M and a Log10TGI (HL-60(TB)) of −4.00 M. For the same molecule, the Log10GI50 (MOLT-4; MOLT-4 (Leukemia)) was −4.73 M, the “drug concentration necessary to achieve primary growth inhibition (percentage growth +50)” value (MOLT-4) was “greater than 10^−4 molar” and the Log10GI50 (RPMI-8226) was over −4.00 M. For the same molecule, the Log10LC50 (RPMI-8226) was over −4.00 M, the Log10TGI (RPMI-8226) was over −4.00 M and the Log10GI50 (SR) was over −4.00 M. The Log10LC50 (SR) was over −4.00 M, the Log10TGI (SR) was over −4.00 M and the Log10GI50 (EKVX) was over −4.00 M. It also gave a Log10LC50 (EKVX) of over −4.00 M, a Log10TGI (EKVX) of over −4.00 M and a Log10GI50 (NCI-H23) of over −4.00 M. For the same molecule, the Log10LC50 (NCI-H23) was over −4.00 M, the Log10TGI (NCI-H23) was over −4.00 M and the Log10GI50 (COLO 205) was over −4.00 M. The Log10LC50 (COLO 205) was over −4.00 M, the Log10TGI (COLO 205) was over −4.00 M and the Log10GI50 (HCT-116) was −4.00 M. For the same molecule, the Log10LC50 (HCT-116) was over −4.00 M, the Log10TGI (HCT-116) was over −4.00 M and the Log10GI50 (KM12) was over −4.00 M. The Log10LC50 (KM12) was over −4.00 M, the Log10TGI (KM12) was over −4.00 M and the Log10GI50 (SNB-75) was over −4.00 M. The Log10LC50 (SNB-75) was over −4.00 M, the Log10TGI (SNB-75) was over −4.00 M and the Log10GI50 (U251) was over −4.00 M. The Log10LC50 (U251) was over −4.00 M, the Log10TGI (U251) was over −4.00 M and the Log10GI50 (UACC-257) was over −4.00 M. The Log10LC50 (UACC-257) was over −4.00 M, the Log10TGI (UACC-257) was over −4.00 M and the Log10GI50 (OVCAR-5) was over −4.00 M. For the same molecule, the Log10LC50 (OVCAR-5) was over −4.00 M, the Log10TGI (OVCAR-5) was over −4.00 M and the Log10GI50 (ACHN) was over −4.00 M. It also gave a Log10LC50 (ACHN) of over −4.00 M, a Log10TGI (ACHN) of over −4.00 M and a Log10GI50 (RXF 393) of −4.08 M. It also gave a Log10LC50 (RXF 393) of over −4.00 M, a Log10TGI (RXF 393) of over −4.00 M and a Log10GI50 (SN12C) of −4.21 M. For the same molecule, the Log10LC50 (SN12C) was over −4.00 M, the Log10TGI (SN12C) was over −4.00 M and the Log10GI50 (TK-10) was over −4.00 M. For the same molecule, the Log10LC50 (TK-10) was over −4.00 M, the Log10TGI (TK-10) was over −4.00 M and the Log10GI50 (UO-31) was −4.06 M. It also gave a Log10LC50 (UO-31) of over −4.00 M, a Log10TGI (UO-31) of −4.00 M and a Log10GI50 (PC-3) of −4.17 M. It also gave a Log10LC50 (PC-3) of over −4.00 M, a Log10TGI (PC-3) of over −4.00 M and a Log10GI50 (MDA-MB231/ATCC) of −4.20 M. For the same molecule, the Log10LC50 (MDA-MB231/ATCC) was over −4.00 M, the Log10TGI (MDA-MB231/ATCC) was −4.00 M and the Log10GI50 (BT-549) was −4.06 M. The Log10LC50 (BT-549) was over −4.00 M, the Log10TGI (BT-549) was −4.00 M and the Log10LC50 (T-47D) was over −4.00 M. The Log10TGI (T-47D) was over −4.00 M.

Reference: patent publication USRE38117E1, “Trioxane dimer compound having antiproliferative and antitumor activities” (Hauser, Inc., priority 1995, dated 2003)
